Here are results for 78 molecules from the METLIN SMRT retention time set (Domingo-Almenara et al. 2019).

The data set in a line: gradient 5% acetonitrile 3 min, to 50% in 2 min, to 85% in 15 min, held 3 min, 100 µL/min. The settings on record: column: Zorbax Extend-C18 2.1 x 50 mm; eluents: water / acetonitrile, 0.1% formic acid. An outline of the steps: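 Data were gathered over 3 months by HPLC coupled to a quadrupole time-of-flight mass spectrometer, operated in positive and negative ionization mode. Mixtures of ~100 pure standards ran on a Zorbax Extend-C18 column (2.1 × 50 mm, 1.8 μm) at 100 μL/min, with water and acetonitrile each containing 0.1% formic acid and dead and dwell volumes of 40 μL and 900 μL. Retention time was read from adduct peaks picked by computer and checked manually.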
On to `COc1ccc(CCC(=O)Nc2nc(-c3cccc(Br)c3)cs2)cc1`, for which the RP-LC retention time amounted to 1150 s.
Turning to `CCc1nc(-c2csc(S(=O)(=O)N3CCCC(C(=O)Nc4ccc(C(C)C)cc4)C3)c2)no1` (stereo not drawn), the RP-LC retention time was found to be 1210 s.
In turn, `O=C(NCC#CCN1CCc2ccccc2C1)c1ccc2cc[nH]c2c1` returned an RP-LC retention time of 579 s.
Next, `CCc1nc(-n2cccc2)sc1C(=O)Nc1ccc(Cl)cc1`: 1180 s; `Cc1ccc(CNC(=O)c2cn3ccc(C)cc3n2)cc1`: 670 s.
`CCC(CC)NS(=O)(=O)c1cc(-c2[nH]ncc2C(=O)N(C)C)oc1C`: the RP-LC retention time worked out at 659 s.
Take `CN(C)CCn1nnc2cc(-c3noc(Cc4ccc(F)cc4)n3)ccc21`: the RP-LC retention time was determined as 714 s.
In turn, `O=S(=O)(NCCc1ccsc1)c1cccnc1` yielded an RP-LC retention time of 686 s.
Next, `CCCn1c(=O)sc2cc(S(=O)(=O)N3CCC(C(=O)NCc4ccccc4)CC3)ccc21`: 932 s; `O=C(NCc1ccccc1Br)c1cn2nc(Cl)ccc2n1`: 894 s.
On to `O=C(Cc1ccc(Cl)cc1)N1CCN(S(=O)(=O)c2cc3c4c(c2)CCC(=O)N4CCC3)CC1`, for which the RP-LC retention time was 842 s.
As for `COCCN1C(=O)c2cccn2CC1CNC(=O)c1sc(C)nc1C` (stereo not drawn), the RP-LC retention time stood at 606 s.
Next, `Cc1ccc2nc(-c3ccc(C)c(NC(=O)C4CCCCC4)c3)[nH]c2c1`: 735 s; `Cn1c(=O)c(N2CCC(NC(=O)Nc3ccc(Cl)cc3)CC2)nc2cccnc21`: 907 s; `CCNC(=O)N1CCc2c(c(-c3nc(-c4ccccc4)no3)nn2C)C1`: 787 s.
In the case of `Cc1nc(-c2cccc(F)c2)sc1CCNC(=O)C(=O)Nc1ccccc1Cl` it was 1160 s; in that of `COCCCN(CC(=O)N1CCNCC1)C(=O)c1ccc(F)c(Cl)c1`, 596 s; in that of `COc1ccc(Cl)c2c(=O)c3c([nH]c12)CCN(CC(=O)Nc1cc(C)ccc1C)C3`, 649 s.
In turn, `Cc1oc(CNC(=O)Nc2ccccc2Cl)nc1C(=O)N1CCCC1` returned an RP-LC retention time of 680 s.
Take `O=c1ccc(N2CCCN(S(=O)(=O)c3ccc(F)c(Cl)c3)CC2)nn1-c1ccccc1`: the RP-LC retention time is 911 s.
Consider `Cc1noc([C@@H]2CN(S(=O)(=O)c3c(C)noc3C)C[C@H]2C(N)=O)n1`, for which the RP-LC retention time stood at 667 s.
With `O=S(=O)(c1ccc(F)cc1)N1CCC(n2cnnc2-c2ccccc2)CC1`, the RP-LC retention time is 774 s.
With `CCCCC(=O)N1CC(c2nc(-c3ccc(F)cc3)no2)C2(CCOCC2)C1` (stereo not drawn), the RP-LC retention time worked out at 904 s.
On to `O=C(NCc1ccc2c(c1)OCO2)c1cn2c(n1)COCC2`, for which the RP-LC retention time worked out at 616 s.
In the case of `CCOC(=O)Cn1c(C2CC(=O)N(c3cc(Cl)ccc3OC)C2)nc2ccccc21` (stereo not drawn) it was 778 s; in that of `COCCCNC(=O)c1ncoc1-c1ccccc1C(=O)N1CCCC1`, 645 s; in that of `CCCn1cc(CCNS(=O)(=O)c2ccccc2)c2cccnc21`, 786 s.
Next, `COc1ccc(-c2nc3cnccn3c2Nc2cccc(C)c2C)cc1`: 953 s; `CC(C(=O)Nc1ccc(Cl)cc1)C1CCN(C(=O)Nc2ccccc2)CC1` (stereo not drawn): 910 s; `O=C(NCc1ccc(F)cc1)C1CCN(S(=O)(=O)c2cc(C(=O)N3CCOCC3)cs2)CC1`: 739 s.
Regarding `COCCN1C(=O)Cc2ccccc2C1C(=O)NCc1cccc(Cl)c1` (stereo not drawn), the RP-LC retention time came to 766 s.
With `O=c1ccc(-c2ccc3c(c2)OCO3)nn1CCc1nc(-c2ccc(Cl)c(F)c2)no1`, the RP-LC retention time came to 1050 s.
The molecule `CC(C)CN1CCn2cc(C(=O)NCc3ccc(F)c(Cl)c3)nc2C1` yielded an RP-LC retention time of 647 s.
In the case of `O=C(NCc1ccc(F)cc1F)C1=C2CCCN2c2ccc(F)cc2S1(=O)=O` it was 895 s; in that of `CCn1c(=O)c(N2CCN(C(=O)Nc3ccc(Br)cc3)CC2)nc2ccccc21`, 1030 s.
As for `O=C(Cn1c(Cc2ccccc2)nc2ccccc21)N1CCCCC1`, the RP-LC retention time came out at 667 s.
For `COC(=O)CC1=CC(SCC(=O)Nc2ccc(Cl)cc2F)=Nc2ccccc2N1`, the RP-LC retention time stood at 910 s.
`O=C1CCN(S(=O)(=O)c2ccccc2)CCCN(C(=O)Nc2ccc3c(c2)OCCO3)CCN1` registered an RP-LC retention time of 701 s.
Molecule `CCOc1ccc(CNS(=O)(=O)c2cc(-c3c(C)noc3NC(C)=O)ccc2OC)cc1` yielded an RP-LC retention time of 785 s.
Next, `COc1nn(C)cc1C(=O)Nc1nnc(-c2cc(C)oc2C)o1`: 666 s; `COc1ccc2c(c1)C1(CCN(S(=O)(=O)c3cc(F)ccc3C)C1)C(=O)N2C` (stereo not drawn): 997 s.
`CCc1ccc(CN2C(=O)CN(S(C)(=O)=O)CC2(C)C(=O)NCc2ccc(C)cc2)cc1` (stereo not drawn) showed an RP-LC retention time of 963 s.
Regarding `O=C(Cc1csc2nc(-c3ccccc3)cn12)NCCCc1ccccc1`, the RP-LC retention time was 841 s.
Molecule `COC(=O)CCc1sc(Nc2ccc(OC)cc2)nc1-c1ccc(OC)cc1` came in with an RP-LC retention time of 909 s.
In the case of `Cc1ccc(CNC(=O)N2CCCC(C)(C(=O)NCc3ccccc3C)C2)cc1` (stereo not drawn) it was 916 s; in that of `O=C(N[C@@H]1CN(c2ncccn2)C[C@H]1CO)c1ccoc1`, 567 s.
In the case of `O=C(c1cc(-c2cccnc2)n[nH]1)N1CCN(C(=O)C2CCCC2)CC1`, the RP-LC retention time worked out at 594 s.
In the case of `CCc1nnc2ccc(NC(=O)Nc3cccc(C)c3)cn12`, the RP-LC retention time came to 719 s.
With `O=C(Nc1cccc(-c2ccc(N3CCOCC3)nn2)c1)Nc1cccc(Cl)c1F`, the RP-LC retention time came to 770 s.
In the case of `Cc1ccc(C)c(OCc2nc(CC(=O)Nc3nc(-c4ccc(F)cc4)c(C)s3)cs2)c1`, the RP-LC retention time was found to be 1310 s.
In the case of `CC1CCN(c2ncc3c(n2)CCC(C(=O)NCc2nc4ccccc4n2C)C3)CC1` (stereo not drawn) it was 625 s; in that of `CC1(C(=O)NCc2ccccc2)CN(S(C)(=O)=O)CC(=O)N1Cc1ccccc1F` (stereo not drawn), 818 s.
On to `COc1cc(C(=O)Nc2nc3ccc4nc(SC)sc4c3s2)cc(OC)c1OC`, for which the RP-LC retention time turned out to be 1080 s.
In turn, `CC(C)c1ccc(S(=O)(=O)N2CCCC2c2nc(-c3ccc(Cl)cc3)no2)cc1` (stereo not drawn) had an RP-LC retention time of 1360 s.
As to `CCCn1cc(CCNC(=O)C2CC2)c2cccnc21`, the RP-LC retention time was determined as 621 s.
Next, `c1cncc(CN2CCCC(OCc3nc(-c4ccncc4)no3)C2)c1` (stereo not drawn): 557 s; `CSc1ccc(-c2nc3cc(C)ccn3c2Nc2ccc3c(c2)OCCO3)cc1`: 719 s; `COc1ccc(-c2nc(C3CC(=O)N(c4ccc(Cl)cc4)C3)no2)cc1OC` (stereo not drawn): 944 s.
With `CCCc1noc(-c2ccnc(-n3cnc(C(=O)N4CCCC4)c3)c2)n1`, the RP-LC retention time stood at 789 s.
Turning to `O=C(CSc1nnc(-c2cccc(S(=O)(=O)N3CCOCC3)c2)o1)c1ccccc1`, the RP-LC retention time was 847 s.
The molecule `O=C(CN1CCc2[nH]c3c(Cl)cccc3c(=O)c2C1)NCc1ccccc1` returned an RP-LC retention time of 598 s.
As for `Cc1cc(C)c(C)c(S(=O)(=O)N2CCC(OCc3noc(C4CCCO4)n3)CC2)c1C` (stereo not drawn), the RP-LC retention time was determined as 1110 s.
For the molecule `O=S(=O)(Nc1ccc(Oc2nc3ccccc3n3cnnc23)cc1)c1cccc2nsnc12`, the RP-LC retention time worked out at 755 s.
The molecule `O=C(c1cccs1)N1[C@H]2CC[C@@H]1c1cnc(-c3ccccc3)nc1C2` displayed an RP-LC retention time of 907 s.
Next, `Cc1cc2ccccc2n1-c1ccc(C(N)=O)s1`: 842 s.
On to `Cc1nn(CCCC(=O)NCCN(C)C)c(=O)c2c(-n3cccc3)n(-c3ccccc3)nc12`, for which the RP-LC retention time is 664 s.
Take `COc1ccc(Cl)cc1NS(=O)(=O)c1cc2n(c1)CCN(C(C)C)C2=O`: the RP-LC retention time was 803 s.
Consider `Cc1ccc(S(=O)(=O)N2CCC(n3c(-c4ccco4)nc4cccnc43)C2)cc1` (stereo not drawn), for which the RP-LC retention time worked out at 863 s.
Turning to `CCOc1ccc(NC(=O)CSc2ccc(N3CCCC(C(=O)NC4CC4)C3)nn2)cc1` (stereo not drawn), the RP-LC retention time is 652 s.
Next, `O=C1COc2ccc(S(=O)(=O)N3CCC(C(=O)NC4CCCc5ccccc54)CC3)cc2N1` (stereo not drawn): 814 s.
In the case of `COc1cc(-c2noc(C3CC(=O)N(c4ccc(C)c(C)c4)C3)n2)cc(OC)c1OC` (stereo not drawn) it was 990 s; in that of `CCOC(=O)c1csc(NC(=O)CC[C@H]2NC(=O)c3ccccc3NC2=O)n1`, 648 s; in that of `CCOc1ccc(NC(=O)Cn2nc(N3CCC(C)CC3)c3ccccc3c2=O)cc1`, 1130 s.
`Cc1cc(C)cc(C(=O)N2CCCC(C(=O)NC3CCCCCC3)C2)c1` (stereo not drawn) displayed an RP-LC retention time of 955 s.
With `Cc1cccc(CNC(=O)c2cn3ccc(C)cc3n2)c1`, the RP-LC retention time turned out to be 675 s.
Molecule `COc1cc(NC(=O)NCC(c2cccnc2)c2cn(C)c3ccccc23)cc(OC)c1OC` (stereo not drawn) yielded an RP-LC retention time of 661 s.
In turn, `COc1ccc(NC(=O)Cn2c(=O)c3cc(C)nn3c3ncccc32)cc1Cl` returned an RP-LC retention time of 724 s.
Next, `CCCN1C(=O)C(CC(=O)NCC2CC2)Sc2ncccc21` (stereo not drawn): 697 s.
